In paper PMC8067754, “Active Transport of Hepatotoxic Pyrrolizidine Alkaloids in HepaRG Cells” (International Journal of Molecular Sciences, 2021):

Columns and labels:
[1] = test system: HepaRG cells; test: Cell viability (MTT assay) of HepaRG cells with and without transporter inhibitors; assay type: cell-based, human; conditions: HepaRG
Experimental: (§1) In the case of TEA, cells were pre-incubated 24 h prior to PA treatment. The inhibitors were applied anew at PA incubation.
(§2) To analyze the cytotoxic effects of PAs on HepaRG cells with non-inhibited and inhibited hepatic transporters, the cells were seeded at a density of 9000 cells per well in the inner 60 wells of a 96-well plate and cultivated as described in Section 4.2. After four weeks of cultivation, FBS concentration in the cell culture medium was reduced to 2% for 48 h prior incubation. Thereby, inhibitory effects of peptide growth factors from the FBS on xenobiotic-metabolizing enzymes were minimized. […] The cells were pre-incubated with pharmacological inhibitors as described in Section 4.3. […] Cell viability was analyzed via the MTT test. 10 µl MTT reagent (5 mg/mL MTT dissolved in phosphate-buffered saline, PBS) was added per well and incubated for 1 h at 37 °C. The supernatant was discarded, and the violet formazan crystals dissolved in 130 µL desorption solution (0.7% sodium dodecyl sulfate in propan-2-ol). After shaking for 20 min (under protection from light), absorbance was measured on a TecanM200Pro spectrometer (Tecan Group Ltd., Männedorf, Switzerland) at a wavelength of 570 nm, along with a reference wavelength of 630 nm.

[2] = as above; assay type: cell-based, human; conditions: human, HepaRG cells, HepaRG, no PA, inhibitor alone 24 h: CsA 10 µM, Ko143 5 µM, MK571 50 µM, Qu 100 µM, TEA 3 mM; read-out: Cell viability (MTT), percent of solvent control, Mean [%]
Experimental: as §1, §2

[3] = target: T1, SLC22A1 (Homo sapiens, UniProt O15245); test: ASP+ (SLC22A1 substrate) uptake measurement in HepaRG cells; assay type: cell-based; conditions: for fluorescence [%], MW [%]: solv ctrl = 100; for reduction of ASP+ (SLC22A1 substrate) uptake: HepaRG, 24 h, Qu 100 µM, TEA 3 mM, 1 µM ASP+
T1 construct: For measuring the uptake of ASP^+ in HepaRG cells incubated with PAs; endogenous in cells; host or cells: differentiated HepaRG cells (human hepatoma)
T1 sequence (O15245 1-554): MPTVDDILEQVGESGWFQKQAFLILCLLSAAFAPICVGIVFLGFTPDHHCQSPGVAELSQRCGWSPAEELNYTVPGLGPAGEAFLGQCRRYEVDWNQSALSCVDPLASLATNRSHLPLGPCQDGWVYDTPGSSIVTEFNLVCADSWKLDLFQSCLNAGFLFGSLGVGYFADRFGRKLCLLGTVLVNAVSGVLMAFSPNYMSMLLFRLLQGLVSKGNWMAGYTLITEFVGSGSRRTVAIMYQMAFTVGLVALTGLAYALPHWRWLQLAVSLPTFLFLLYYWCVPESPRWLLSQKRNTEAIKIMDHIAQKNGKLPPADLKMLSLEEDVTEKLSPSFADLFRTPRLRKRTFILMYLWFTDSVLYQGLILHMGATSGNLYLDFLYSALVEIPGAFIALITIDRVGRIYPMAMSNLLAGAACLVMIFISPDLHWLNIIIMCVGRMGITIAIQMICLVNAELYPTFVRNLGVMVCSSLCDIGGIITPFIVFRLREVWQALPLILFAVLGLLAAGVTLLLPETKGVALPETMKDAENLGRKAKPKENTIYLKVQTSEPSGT
Experimental: ASP^+ is an organic cationic mitochondrial dye that only fluoresces inside cells so that fluorescence measured in the cell culture medium can be neglected. […] In parallel, cells were incubated with Qu (100 µM) and TEA (3 mM) as mentioned in Section 4.3. After 24 h, cells were incubated with 1 µM ASP^+ in Hanks’ balanced salt solution (HBSS, Sigma-Aldrich, Taufkirchen, Germany) at 37 °C. Fluorescence was measured after 20 min at ASP^+-specific wavelength (λex = 475 nm and λem = 605 nm) on a TecanM200Pro spectrometer (Tecan Group Ltd., Männedorf, Switzerland) according to Ahlin et al., (2008).

[4] = test system: HepaRG cells; test: PA and PANO content in cell culture medium of HepaRG cells upon pharmacological transporter inhibition (LC-MS/MS); assay type: in vitro ADME, human; conditions: HepaRG, 2.5 µM PA, 4, 8, 24 h; CsA 10 µM, Ko143 5 µM, MK-571 50 µM, Qu 100 µM, TEA 3 mM
Experimental: as §1
In order to measure time-dependent depletion of PA and PANO content in cell culture medium, cells were seeded at a density of 0.2 × 10^6 cells per well in a 6-well plate and cultivated as described in Section 4.2. After four weeks of cultivation, cells were adapted to serum-free medium and medium substituted with insulin, transferrin, selenium (ITS) serum extender (Capricorn Scientific, Ebsdorfergrund, Germany) 48 h prior to PA incubation for optimal LC-MS/MS measurements. […] Samples were taken after 2 h, 4 h, 8 h and 24 h.
Briefly, chromatographic separation of PA/PANO analytes was achieved on a 50 × 2.1 mm Kinetex ™ 2.6 μm CoreShell EVO C18 100 Å column protected by a SecurityGuard ™ ULTRA EVO C 18 2.1 mm guard column (both Phenomenex, Aschaffenburg, Germany) at a flow rate of 0.4 mL/min on a Shimadzu high performance liquid chromatography (HPLC) apparatus (LC-20AB, SIL-20AC HT, CTO-20AC, CBM-20A, Duisburg, Germany) coupled to an API4000 triple quadrupole MS (Sciex, Darmstadt, Germany). The following MS parameters were used for measurements in positive electrospray ionisation (ESI+) mode: ionisation voltage 2500 V, nebuliser gas 50 psi, heating gas 50 psi, curtain gas 30 psi, temperature 600 °C, collision gas level 7. The substance specific parameters are summarized in Kaltner et al. 2019 [79].

Row | Compound | Cell viability (MTT), percent of solvent control ([1]; 0.01% Triton X-100 positive control, listed as pos ctrl) [%] | viability at 24 h [2] [%] | fluorescence [%], MW [%] ([3]; 100 µM) | reduction of ASP+ (SLC22A1 substrate) uptake [3] | effect of inhibitor on retrorsine and senecionine uptake and PANO formation [4] | fluorescence [%], MW [%] ([3]; 3mM) | effect of inhibitor on PA-mediated cytotoxicity ([1]; 250 µM retrorsine or senecionine, MTT, 24 h, versus 250 µM PA only) | Cell viability (MTT), percent of solvent control, Mean [%] ([1]; no PA, inhibitor alone 24 h: CsA 10 µM, Ko143 5 µM, MK571 50 µM, Qu 100 µM, TEA 3 mM)
1 | Triton X-100 [reference compound] | 2.774 |  |  |  |  |  |  | 
2 | C=C[C@H]1C[N@@]2CC[C@H]1C[C@@H]2[C@@H](O)c1ccnc2ccc(OC)cc12 [Qu, quinidine] |  | 87.2 | 82.7588 | 18% | striking effect on both retrorsine and senecionine uptake at all time points |  |  | 
3 | CC[N+](CC)(CC)CC [TEA, tetraethylammonium bromide] |  | 84.5 |  | up to 64% | significantly reduced retrorsine uptake only after 8 and 24 h and senecionine uptake only after 8 h | 36.1156 |  | 
4 | COc1ccc2c3c([nH]c2c1)[C@H](CC(C)C)N1C(=O)[C@H](CCC(=O)OC(C)(C)C)NC(=O)[C@@H]1C3 [Ko143, reference compound] |  |  |  |  | did not alter retrorsine and senecionine uptake and PANO formation |  | did not alter the cytotoxic effects of retrorsine and senecionine | 98.3595
